In US8901118B2, “Compounds and methods for kinase modulation, and indications therefor” (Plexxikon Inc., priority 2010, dated 2014):

Assays:
[1] = target: c-Kit kinase (Homo sapiens, UniProt P10721); assay: c-Kit kinase biochemical activity assay (AlphaScreen, biotin-(E4Y)10 phosphorylation); conditions: 100 μM ATP; read-out: Biochemical Inhibition IC50 Kit
Method: Assays for biochemical and cell based activity are known in the art, for example, U.S. Patent Application Publication Number 2009/0076046, the disclosure of which is hereby incorporated by reference as it relates to such assays. For example, in one assay the biochemical activity IC50 values are determined with respect to inhibition of c-Kit kinase activity, where inhibition of phosphorylation of a peptide substrate is measured as a function of compound concentration. Compounds to be tested are dissolved in DMSO to a concentration of 20 mM. These are diluted 30 μL into 120 μL of DMSO (4 mM) and 1 μL is added to an assay plate. These are then serially diluted […] (50 μL to 100 μL DMSO) for a total of 8 points. Plates are prepared such that each kinase reaction is 20 μL in 1× kinase buffer (25 mM HEPES, pH 7.5, 2 mM MgCl2, 2 mM MnCl2, 0.01% Tween-20, 1 mM DTT, 0.01% BSA), 5% DMSO and 100 μM ATP. Substrate is 30 nM biotin-(E4Y) 10 (Millipore). C-kit kinase (obtained from Millipore (#14-559) or is prepared as described in U.S. Patent Application Publication Number 2009/0076046, the disclosure of which is hereby incorporated by reference as it relates to this assay) is at 0.75 ng per sample. After incubation of the kinase reaction for 1 hour at room temperature, 5 μL of donor beads (Streptavidin coated beads (Perkin Elmer Life Science) final concentration 10 μg/mL) in stop buffer (25 mM Hepes pH 7.5, 100 mM EDTA, 0.01% BSA) is added, the sample is mixed and incubated for 20 minutes at room temperature before adding 5 μL of acceptor beads (PY20 coated beads (Perkin Elmer Life Science) final concentration 10 μg/mL) in stop buffer. The samples are incubated for 60 minutes at room temperature and the signal per well is read on Envision reader. Phosphorylated substrate results in binding of the PY20 antibody and association of the donor and acceptor beads such that signal correlates with kinase activity. The signal vs. compound concentration is used to determine the IC50.

[2] = target: TrkA kinase (Homo sapiens, UniProt P04629); assay: TrkA kinase biochemical activity assay (AlphaScreen); conditions: 100 μM ATP; read-out: Biochemical Inhibition IC50 TrkA
Method: In one assay the biochemical activity IC50 values are determined with respect to inhibition of TrkA kinase activity, where inhibition of phosphorylation of a peptide substrate is measured as a function of compound concentration. Compounds to be tested, dissolved in DMSO (1 μL), are added to a white 384-well plate (Costar #3705). Working stocks of TrkA kinase (UBI), biotin-(E4Y)10 substrate (Upstate Biotech, Cat#12-440), and ATP (Sigma, Cat#A-3377) are prepared in 25 mM Hepes pH 7.5, 10 mM MnCl2, 1 mM DTT, 0.01% BSA, and 0.01% Tween-20. All components are added to the 384-well plate for a final concentration of 1 ng/well TrkA, 30 nM biotin-(E4Y)10 and 100 μM ATP in a volume of 20 μL. Each sample is at 5% DMSO. The plate is shaken for 1 minute at 1200 rpm, spun for 1 minute at 1000 rpm, then incubated for 40 minutes at room temperature. Just before use, working stocks of donor and acceptor beads from the AlphaScreen PY20 Detection Kit (PerkinElmer, Cat#676601M) are prepared in 25 mM Hepes pH 7.5, 100 mM EDTA. 0.01% BSA. Donor Beads solution (Streptavidin beads) is added (5 μL) to each well to final bead concentration of 10 μg/mL. The plate is incubated at room temperature for 20 minutes. Acceptor Beads solution (PY20 coated beads) are then added to each well (5 μL) to a final concentration of bead at 10 μg/mL. The plates are incubated at room temperature for 60 minutes. Fluorescence signal is recorded on the Envision reader. Phosphorylated substrate results in binding of the PY20 antibody and association of the donor and acceptor beads such that signal correlates with kinase activity. The signal vs. compound concentration is used to determine the IC50. Similar assays are used for TrkB and Trk C kinase.

Chain of TrkA kinase (P04629 33-796): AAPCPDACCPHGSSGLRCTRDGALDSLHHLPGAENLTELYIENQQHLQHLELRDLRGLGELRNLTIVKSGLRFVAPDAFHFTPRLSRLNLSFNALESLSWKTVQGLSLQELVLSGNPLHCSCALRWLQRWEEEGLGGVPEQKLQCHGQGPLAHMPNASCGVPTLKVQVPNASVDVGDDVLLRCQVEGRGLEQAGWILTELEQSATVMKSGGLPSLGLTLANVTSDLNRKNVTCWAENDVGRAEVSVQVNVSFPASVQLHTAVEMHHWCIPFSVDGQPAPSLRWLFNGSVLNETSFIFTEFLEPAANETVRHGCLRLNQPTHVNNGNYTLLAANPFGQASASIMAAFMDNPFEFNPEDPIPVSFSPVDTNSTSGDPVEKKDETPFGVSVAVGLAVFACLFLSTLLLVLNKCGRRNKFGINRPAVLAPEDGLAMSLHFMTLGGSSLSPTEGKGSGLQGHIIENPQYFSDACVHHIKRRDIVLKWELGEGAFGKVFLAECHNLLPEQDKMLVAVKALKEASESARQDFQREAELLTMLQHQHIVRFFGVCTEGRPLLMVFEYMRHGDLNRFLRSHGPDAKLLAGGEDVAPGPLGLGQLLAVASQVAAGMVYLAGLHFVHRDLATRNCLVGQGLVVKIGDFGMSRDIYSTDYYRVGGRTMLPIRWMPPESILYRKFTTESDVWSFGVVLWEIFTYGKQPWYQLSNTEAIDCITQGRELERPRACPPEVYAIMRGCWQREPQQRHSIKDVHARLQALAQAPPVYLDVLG
Chain of c-Kit kinase (P10721 26-976): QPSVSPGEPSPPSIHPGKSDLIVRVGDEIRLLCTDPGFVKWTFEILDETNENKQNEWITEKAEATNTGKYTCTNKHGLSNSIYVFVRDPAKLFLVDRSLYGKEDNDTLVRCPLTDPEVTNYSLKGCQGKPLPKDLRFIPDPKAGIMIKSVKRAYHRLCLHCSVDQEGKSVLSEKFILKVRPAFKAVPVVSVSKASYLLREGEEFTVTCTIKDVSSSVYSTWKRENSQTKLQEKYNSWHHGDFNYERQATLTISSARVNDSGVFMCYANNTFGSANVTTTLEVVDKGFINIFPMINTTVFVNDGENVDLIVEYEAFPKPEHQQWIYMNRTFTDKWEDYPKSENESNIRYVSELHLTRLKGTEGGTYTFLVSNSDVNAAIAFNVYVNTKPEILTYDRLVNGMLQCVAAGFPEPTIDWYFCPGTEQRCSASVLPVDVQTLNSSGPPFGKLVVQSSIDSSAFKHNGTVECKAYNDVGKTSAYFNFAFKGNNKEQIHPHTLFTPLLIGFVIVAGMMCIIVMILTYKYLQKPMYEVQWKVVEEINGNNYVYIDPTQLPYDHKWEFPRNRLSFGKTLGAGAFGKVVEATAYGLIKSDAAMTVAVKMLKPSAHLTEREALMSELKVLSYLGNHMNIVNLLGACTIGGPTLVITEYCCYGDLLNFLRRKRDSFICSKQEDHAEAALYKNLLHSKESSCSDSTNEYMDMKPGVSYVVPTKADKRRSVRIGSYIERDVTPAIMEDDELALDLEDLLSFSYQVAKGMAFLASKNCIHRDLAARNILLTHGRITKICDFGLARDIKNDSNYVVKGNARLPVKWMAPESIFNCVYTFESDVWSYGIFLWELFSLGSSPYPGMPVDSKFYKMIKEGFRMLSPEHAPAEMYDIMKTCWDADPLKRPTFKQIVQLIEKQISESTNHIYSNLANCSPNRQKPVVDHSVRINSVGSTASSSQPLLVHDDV

Compound	IC50 [1] [nM]	IC50 [2] [nM]
Cc1cnc2[nH]cc(Cc3cnc(Nc4ccc(F)cc4)nc3)c2c1 [Compound P-3010, (4-Fluoro-phenyl)-[5-(5-methyl-1H-pyrrolo[2,3-b]pyridin-3-ylmethyl)-pyrimidin-2-yl]-amine]	< 100	< 1000
Clc1ccc(Nc2ncc(Cc3c[nH]c4ncc(Cl)cc34)cn2)cc1 [Compound P-3011, (4-Chloro-phenyl)-[5-(5-chloro-1H-pyrrolo[2,3-b]pyridin-3-ylmethyl)-pyrimidin-2-yl]-amine]	< 10	> 1000
Fc1ccc(Nc2ncc(Cc3c[nH]c4ncc(Cl)cc34)cn2)cc1 [Compound P-3012, [5-(5-Chloro-1H-pyrrolo[2,3-b]pyridin-3-ylmethyl)-pyrimidin-2-yl]-(4-fluoro-phenyl)-amine]	< 10	> 1000
Fc1nc(NC2CCC(F)(F)CC2)ccc1Cc1c[nH]c2ncc(Cl)cc12 [Compound P-3013, [5-(5-Chloro-1H-pyrrolo[2,3-b]pyridin-3-ylmethyl)-6-fluoro-pyridin-2-yl]-(4,4-difluoro-cyclohexyl)-amine]	< 1000	
Fc1ccccc1Nc1ncc(Cc2c[nH]c3ncc(Cl)cc23)cn1 [Compound P-3014, [5-(5-Chloro-1H-pyrrolo[2,3-b]pyridin-3-ylmethyl)-pyrimidin-2-yl]-(2-fluoro-phenyl)-amine]	< 100	> 1000
Clc1cnc2[nH]cc(Cc3cnc(Nc4ccccc4Cl)nc3)c2c1 [Compound P-3015, (2-Chloro-phenyl)-[5-(5-chloro-1H-pyrrolo[2,3-b]pyridin-3-ylmethyl)-pyrimidin-2-yl]-amine]	< 1000	> 1000
COc1ccc(Nc2ccc(C(=O)c3c[nH]c4ncnc(NC(C)(C)C)c34)c(F)n2)cn1 [Compound P-4055, [4-(tert-butylamino)-7H-pyrrolo[2,3-d]pyrimidin-5-yl]-[2-fluoro-6-[(6-methoxy-3-pyridyl)amino]-3-pyridyl]methanone]	< 1000	
COc1ccc(Nc2ccc(C(=O)c3c[nH]c4ncnc(NC5CCC(F)(F)CC5)c34)c(F)n2)cn1 [Compound P-4056, [4-[(4,4-difluorocyclohexyl)amino]-7H-pyrrolo[2,3-d]pyrimidin-5-yl]-[2-fluoro-6-[(6-methoxy-3-pyridyl)amino]-3-pyridyl]methanone]	< 100	
O=C(c1ccc(NC2CCC(F)(F)CC2)nc1Cl)c1c[nH]c2ncnc(NCC(F)(F)F)c12 [Compound P-4057, [2-chloro-6-[(4,4-difluorocyclohexyl)amino]-3-pyridyl]-[4-(2,2,2-trifluoroethylamino)-7H-pyrrolo[2,3-d]pyrimidin-5-yl]methanone]	> 1000	< 1000
CNc1ncnc2[nH]cc(C(=O)c3ccc(NC4CCC(F)(F)CC4)nc3Cl)c12 [Compound P-4058, [2-chloro-6-[(4,4-difluorocyclohexyl)amino]-3-pyridyl]-[4-(methylamino)-7H-pyrrolo[2,3-d]pyrimidin-5-yl]methanone]	> 1000	< 1000
O=C(c1ccc(NC2CCC(F)(F)CC2)nc1Cl)c1c[nH]c2ncnc(NC3CC3)c12 [Compound P-4059, [2-chloro-6-[(4,4-difluorocyclohexyl)amino]-3-pyridyl]-[4-(cyclopropylamino)-7H-pyrrolo[2,3-d]pyrimidin-5-yl]methanone]	< 1000	< 100
CCNc1ncnc2[nH]cc(C(=O)c3ccc(Nc4ccc(C5CC5)nc4)nc3F)c12 [Compound P-4060, [6-[(6-cyclopropyl-3-pyridyl)amino]-2-fluoro-3-pyridyl]-[4-(ethylamino)-7H-pyrrolo[2,3-d]pyrimidin-5-yl]methanone]	< 100	< 10
O=C(c1ccc(NC2CCC(F)(F)CC2)nc1F)c1c[nH]c2ncnc(NCC(F)(F)F)c12 [Compound P-4061, [6-[(4,4-difluorocyclohexyl)amino]-2-fluoro-3-pyridyl]-[4-(2,2,2-trifluoroethylamino)-7H-pyrrolo[2,3-d]pyrimidin-5-yl]methanone]	> 1000	< 100
O=C(c1ccc(NC2CCC(F)(F)CC2)nc1F)c1c[nH]c2ncnc(NC3CC3)c12 [Compound P-4062, [4-(cyclopropylamino)-7H-pyrrolo[2,3-d]pyrimidin-5-yl]-[6-[(4,4-difluorocyclohexyl)amino]-2-fluoro-3-pyridyl]methanone]	< 100	< 10
CNc1ncnc2[nH]cc(C(=O)c3ccc(NC4CCC(F)(F)CC4)nc3F)c12 [Compound P-4063, [6-[(4,4-difluorocyclohexyl)amino]-2-fluoro-3-pyridyl]-[4-(methylamino)-7H-pyrrolo[2,3-d]pyrimidin-5-yl]methanone]	< 1000	< 10
CCc1ccc(Nc2ccc(C(=O)c3c[nH]c4ncnc(NCC(C)(C)O)c34)c(F)n2)cn1 [Compound P-4064, [6-[(6-ethyl-3-pyridyl)amino]-2-fluoro-3-pyridyl]-[4-[(2-hydroxy-2-methyl-propyl)amino]-7H-pyrrolo[2,3-d]pyrimidin-5-yl]methanone]	< 100	< 10
CCc1ccc(Nc2ccc(C(=O)c3c[nH]c4ncnc(N)c34)c(F)n2)cn1 [Compound P-4065, (4-amino-7H-pyrrolo[2,3-d]pyrimidin-5-yl)-[6-[(6-ethyl-3-pyridyl)amino]-2-fluoro-3-pyridyl]methanone]	< 100	< 10
COc1ccc(Nc2ccc(C(=O)c3c[nH]c4ncnc(NC(C)C)c34)c(F)n2)cn1 [Compound P-4066, [2-fluoro-6-[(6-methoxy-3-pyridyl)amino]-3-pyridyl]-[4-(isopropylamino)-7H-pyrrolo[2,3-d]pyrimidin-5-yl]methanone]	< 100	< 10
COc1ccc(Nc2ccc(C(=O)c3c[nH]c4ncnc(NCC5CC5)c34)c(F)n2)cn1 [Compound P-4067, [4-(cyclopropylmethylamino)-7H-pyrrolo[2,3-d]pyrimidin-5-yl]-[2-fluoro-6-[(6-methoxy-3-pyridyl)amino]-3-pyridyl]methanone]	< 1000	< 10
CCCNc1ncnc2[nH]cc(C(=O)c3ccc(Nc4ccc(OC)nc4)nc3F)c12 [Compound P-4068, [2-fluoro-6-[(6-methoxy-3-pyridyl)amino]-3-pyridyl]-[4-(propylamino)-7H-pyrrolo[2,3-d]pyrimidin-5-yl]methanone]	< 100	< 10
COc1ccc(Nc2ccc(C(=O)c3c[nH]c4ncnc(N5CCCCC5)c34)c(F)n2)cn1 [Compound P-4069, [2-fluoro-6-[(6-methoxy-3-pyridyl)amino]-3-pyridyl]-[4-(1-piperidyl)-7H-pyrrolo[2,3-d]pyrimidin-5-yl]methanone]	> 1000	< 100
COc1ccc(Nc2ccc(C(=O)c3c[nH]c4ncnc(N5CCOCC5)c34)c(F)n2)cn1 [Compound P-4070, [2-fluoro-6-[(6-methoxy-3-pyridyl)amino]-3-pyridyl]-(4-morpholino-7H-pyrrolo[2,3-d]pyrimidin-5-yl)methanone]	> 1000	> 1000
COc1ccc(Nc2ccc(C(=O)c3c[nH]c4ncnc(NCc5ccc(C(F)(F)F)nc5)c34)c(F)n2)cn1 [Compound P-4071, [2-fluoro-6-[(6-methoxy-3-pyridyl)amino]-3-pyridyl]-[4-[[6-(trifluoromethyl)-3-pyridyl]methylamino]-7H-pyrrolo[2,3-d]pyrimidin-5-yl]methanone]	> 1000	< 10
